US12303499B2, “Aqueous based pharmaceutical formulations of 1,2-dihydropyridine compounds” (Eisai R&D Management Co., Ltd., priority 2018, dated 2025)
≈ marks a conversion by molar mass, not a printed value.

Legend:
Format in all cases: physicochemical
[1] = Metastable zone width study (precipitation temperature on cooling); conditions: 40% SBE-β-CD, pH 7
Description: Meta-Stable Zone Width studies on SBE-β-CD based perampanel formulations containing varying concentrations of perampanel were performed to estimate the meta-stable zone for formulations containing 40% SBE-β-CD at pH 7. Lyophilization provides for long-term storage but requires reconstitution prior to use. When the lyophilized formulation is reconstituted, the solution is in a meta-stable supersaturated state. Meta-stable zone width analysis provides an estimate of how close a formulation is to the meta-stable state boundary.
Perampanel solutions of varying concentration were prepared in 40% SBE-β-CD at pH 7 and placed in a warm temperature controlled mixing vessel with a LASENTECH® probe to detect precipitation. Although those skilled in the art will recognize that formulations as stated in the prior examples may be prepared by a number of methods, the following method is used to prepare formulations at various perampanel concentrations in 40% SBE-β-CD, pH 7, liquid form, for the trials below. First, a SBE-β-CD solution at pH 1.8 is prepared by adding about 25 ml of water to a beaker, then adding about 20 g of SBE-β-CD. The SBE-β-CD has a water content of 4.7%, is 100% pure, and has a theoretical weight of 20 g/0.953, or 21.0 g. The SBE-β-CD is slowly added with mixing until it has dissolved. The volume is checked to ensure that it is not greater than 40 ml. pH of the solution is adjusted to pH 1.75 with 85% phosphoric acid.
The weight of perampanel used to prepared the desired concentration is then calculated by dividing 100 mg by the product of (1-[moisture content of perampanel/100]) and (anhydrous purity of perampanel/100). In some examples the moisture content is 3.7% and the anhydrous purity is 99.9%. The calculated amount of perampanel is added to the pH 1.75 solution, then mixed overnight at 40° C. The solution is filtered through a 20 μm filter at 40° C., then warmed to 40° C. At that temperature pH is adjusted to 7. Volume is adjusted to 50 mL with water and mixed.
The solutions were cooled at defined rates and the temperature at which precipitation occurred was recorded. The potency for each sample was measured by HPLC analysis. The precipitation temperature data were analyzed as per the method described by Sangwal, K. in Crystal Growth and Design, 9, 2 (2009) 942-950.
A plot of the precipitation temperature of perampanel from a 40% SBE-β-CD, pH 7 solution as a function of drug concentration (mg/mL) and cooling rate (deg C./hr) is provided in FIG. 8. A contour plot (see FIG. 9) and a 3-D plot (see FIG. 10) illustrating the relationship between cooling rate (deg/hr), perampanel concentration (mg/mL) and precipitation temperature were generated using the DESIGN-EXPERT® software, version 7.1.6. The DESIGN-EXPERT® model used the precipitation temperature, cooling rate, concentration and concentration terms to fit a surface to the data. The DESIGN-EXPERT® program was then able to extrapolate the precipitation temperature at zero cooling rate for different drug concentrations with 95% confidence intervals from the fit of the data.
This extrapolated data was used to prepare FIG. 11, which predicts the meta-stable zone boundary for perampanel in a 40% SBE-β-CD formulation at pH 7. Theoretically, if the drug concentration remains at or below the meta-stable zone boundary, then the drug should not precipitate from solution at the defined temperatures.

[2] = pH-solubility of perampanel in SBE-β-CD solutions; conditions: aqueous with cosolvent or surfactant or cyclodextrin
Description: Studies were conducted to determine the effect of Sulfobutyl Ether Beta Cyclodextrin (SBE-β-CD) concentration and pH on perampanel solubility. In one embodiment, the drug is solubilized at acidic pH in high concentration SBE-β-CD solutions, and then administered at neutral pH in low concentration SBE-β-CD solutions after dilution. The pH range studied for the formulation was 1.5 to 8.0 with a SBE-β-CD concentration range of 20% to 50%. For the diluted administration solution, the pH range studied was 6 to 8 with a SBE-β-CD concentration range of 3% to 9.5%.
In one embodiment, the drug product is administered after dilution with an IV fluid. The solubility of perampanel in SBE-β-CD was determined under diluted conditions in the neutral pH range. Perampanel concentrations after dilution can be as low as 0.08 mg/mL (8 mg in 100 mL) and as high as 0.24 mg/mL (12 mg in 50 mL).

[3] = Aqueous solubility of perampanel without solubilizer; conditions: water without solubilizer, aqueous buffer
Description: Perampanel has particularly poor water solubility. Perampanel has an aqueous solubility of about 0.001 mg/mL at pH 7 at ambient room temperature. Many attempts to solubilize perampanel in water have failed.
Perampanel is a basic drug that has poor water solubility. One source of perampanel is FYCOMPA, obtained from Eisai Co. Ltd., of Tokyo. […] Solubility studies investigated numerous different solubilizers ranging from organic cosolvents, surfactants, amino acids, complexing agents, and cyclodextrins. Further solubility studies were conducted as a function of pH with four selected solubilizers in the pH range 2 to 6. Solubility with all four solubilizers decreased as the pH was increased from 2 to 6. (See FIG. 2)

N#Cc1ccccc1-c1cc(-c2ccccn2)cn(-c2ccccc2)c1=O [perampanel, 2-(6′-oxo-1′-phenyl-1′,6′-dihydro[2,3′-bipyridin]-5′-yl)benzonitrile]
Ppt T ([1]; Exp MC2-102-148, cooling 3.00 deg C./hour, measured 1.99 mg/mL): 21.6 deg C. | Ppt T ([1]; Exp MC2-102-149, cooling 1.00 deg C./hour, measured 1.64 mg/mL): 31.6 deg C. | Ppt T ([1]; Exp MC2-102-150, cooling 3.00 deg C./hour, measured 1.69 mg/mL): 13.7 deg C. | Ppt T ([1]; Exp MC2-102-151, cooling 6.00 deg C./hour, measured 1.63 mg/mL): 11.3 deg C. | Ppt T ([1]; Exp MC2-102-153, cooling 6.00 deg C./hour, measured 1.81 mg/mL): 12.6 deg C. | Ppt T ([1]; Exp MC2-102-154, cooling 1.00 deg C./hour, measured 1.97 mg/mL): 30.5 deg C. | Ppt T ([1]; Exp MC2-102-155, cooling 2.00 deg C./hour, measured 1.68 mg/mL): 12.2 deg C. | Ppt T ([1]; Exp MC2-102-157, cooling 4.00 deg C./hour, measured 1.70 mg/mL): 17.2 deg C. | Ppt T ([1]; Exp MC2-102-159, cooling 2.00 deg C./hour, measured 1.39 mg/mL): 6.4 deg C. | Ppt T ([1]; Exp MC2-102-161, cooling 0.50 deg C./hour, measured 1.79 mg/mL): 32.6 deg C. | Ppt T ([1]; Exp MC2-102-162, cooling 1.50 deg C./hour, measured 1.74 mg/mL): 21.7 deg C. | Ppt T ([1]; Exp MC2-102-163, cooling 0.75 deg C./hour, measured 1.51 mg/mL): 20.3 deg C. | Ppt T ([1]; Exp MC2-102-164, cooling 0.15 deg C./hour, measured 1.74 mg/mL): 36.6 deg C. | Ppt T ([1]; Exp MC2-102-165, cooling 0.30 deg C./hour, measured 1.80 mg/mL): 34.8 deg C. | Ppt T ([1]; Exp MC2-102-166, cooling 0.75 deg C./hour, measured 1.78 mg/mL): 32.1 deg C. | Ppt T ([1]; Exp MC2-102-168, cooling 1.00 deg C./hour, measured 1.52 mg/mL): 9.5 deg C. | Ppt T ([1]; Exp MC2-102-169, cooling 0.50 deg C./hour, measured 1.43 mg/mL): 29.5 deg C. | Ppt T ([1]; Exp MC2-102-170, cooling 0.30 deg C./hour, measured 1.43 mg/mL): 29.6 deg C. | Ppt T ([1]; Exp MC2-102-172, cooling 0.15 deg C./hour, measured 1.53 mg/mL): 33.3 deg C. | Ppt T ([1]; Exp MC2-102-174, cooling 0.40 deg C./hour, measured 1.51 mg/mL): 30.9 deg C. | Ppt T ([1]; Exp MC2-102-178, cooling 0.22 deg C./hour, measured 1.42 mg/mL): 33.7 deg C. | Ppt T ([1]; Exp MC2-102-181, cooling 0.10 deg C./hour, measured 1.46 mg/mL): 33.5 deg C. | Ppt T ([1]; Exp MC2-102-182, cooling 0.22 deg C./hour, measured 1.77 mg/mL): 35.5 deg C. | Ppt T ([1]; Exp MC2-102-185, cooling 0.40 deg C./hour, measured 1.30 mg/mL): 17.4 deg C. | Ppt T ([1]; Exp MC2-102-187, cooling 0.30 deg C./hour, measured 1.10 mg/mL): 10.2 deg C. | Ppt T ([1]; Exp MC2-102-192, cooling 0.20 deg C./hour, measured 1.21 mg/mL): 22.9 deg C. | Ppt T ([1]; Exp MC2-102-193, cooling 0.10 deg C./hour, measured 1.26 mg/mL): 24.1 deg C. | Ppt T ([1]; Exp MC2-102-197, cooling 0.40 deg C./hour, measured 1.06 mg/mL): 2.6 deg C. | Ppt T ([1]; Exp MC2-1108-001, cooling 0.40 deg C./hour, measured 0.97 mg/mL): 12.8 deg C. | solubility ([2]; 3% SBE-β-CD solution, 3% SBE-β-CD, pH 5.5): 20 µg/mL (≈ 57.2 µM) | solubility ([2]; 3% SBE-β-CD solution, 3% SBE-β-CD, pH 7): 30 µg/mL (≈ 85.9 µM) | solubility ([2]; 3% SBE-β-CD solution, 3% SBE-β-CD, pH 8): 30 µg/mL (≈ 85.9 µM) | solubility ([2]; 6% SBE-β-CD solution, 6% SBE-β-CD, pH 5.5): 40 µg/mL (≈ 114 µM) | solubility ([2]; 6% SBE-β-CD solution, 6% SBE-β-CD, pH 7): 30 µg/mL (≈ 85.9 µM) | solubility ([2]; 6% SBE-β-CD solution, 6% SBE-β-CD, pH 8): 60 µg/mL (≈ 172 µM) | solubility ([2]; 9.5% SBE-β-CD solution, 9.5% SBE-β-CD, pH 5): 80 µg/mL (≈ 229 µM) | solubility ([2]; 9.5% SBE-β-CD solution, 9.5% SBE-β-CD, pH 7): 80 µg/mL (≈ 229 µM) | solubility ([3]; 22° C., pH 2): 30 µg/mL (≈ 85.9 µM) | solubility ([3]; 22° C., pH 7): ~1 µg/mL (≈ 2.86 µM) | solubility ([3]; pH 7, ambient room temperature): ~1 µg/mL (≈ 2.86 µM)
